Legend:
H^+,K^+-ATPase D137I = H^+,K^+-ATPase D137I (Sus scrofa, UniProt P19156, D138I); assay: ATPase assay, D137I mutant
H^+,K^+-ATPase WT = target: T1, H^+,K^+-ATPase WT (Sus scrofa, UniProt P19156); assay: K^+-competitive inhibition of H^+,K^+-ATPase activity, 96-well ATPase assay, wild-type; format: biochemical, pig
T1 construct: made in house; host or cells: HEK293S GnT1- cells (BacMam baculovirus transduction); permeabilised membrane fractions

H^+,K^+-ATPase L139A = H^+,K^+-ATPase L139A (Sus scrofa, UniProt P19156, L140A); assay: ATPase assay, L139A mutant
H^+,K^+-ATPase Y799F = H^+,K^+-ATPase Y799F (Sus scrofa, UniProt P19156, Y800F); assay: ATPase assay, Y799F mutant
H^+,K^+-ATPase D136F = H^+,K^+-ATPase D136F (Sus scrofa, UniProt P19156, D137F); assay: ATPase assay, D136F mutant
H^+,K^+-ATPase = H^+,K^+-ATPase (Sus scrofa, UniProt P19156); assay: Dose-dependent inhibition of H^+,K^+-ATPase activity in the presence of 10 mM KCl
Procedure: Reactions were initiated by incubating at 37 °C using a thermal cycler, and maintained for 1 to 5 h (depending on the activity). Reactions were terminated by withdrawing 40 μL from the 80 μL reactant, and mixing with 80 μL of stop solution comprising 6% ascorbic acid and 2% ammonium molybdate in 1 N HCl, followed by the addition of 120 μL of 2% sodium arsenate, 2% sodium citrate, and 2% acetic acid. The amount of released inorganic phosphate was determined colorimetrically[39] from absorbance at 850 nm by the microplate reader (TECAN).

H^+,K^+-ATPase D136I = H^+,K^+-ATPase D136I (Sus scrofa, UniProt P19156, D137I); assay: ATPase assay, D136I mutant
H^+,K^+-ATPase L139I = H^+,K^+-ATPase L139I (Sus scrofa, UniProt P19156, L140I); assay: ATPase assay, L139I mutant
H^+,K^+-ATPase D137F = H^+,K^+-ATPase D137F (Sus scrofa, UniProt P19156, D138F); assay: ATPase assay, D137F mutant
H^+,K^+-ATPase N138L = H^+,K^+-ATPase N138L (Sus scrofa, UniProt P19156, N139L); assay: ATPase assay, N138L mutant
H^+,K^+-ATPase A335G = H^+,K^+-ATPase A335G (Sus scrofa, UniProt P19156, A336G); assay: ATPase assay, A335G mutant
H^+,K^+-ATPase Y799A = H^+,K^+-ATPase Y799A (Sus scrofa, UniProt P19156, Y800A); assay: ATPase assay, Y799A mutant
H^+,K^+-ATPase Y140A = H^+,K^+-ATPase Y140A (Sus scrofa, UniProt P19156, Y141A); assay: ATPase assay, Y140A mutant
H^+,K^+-ATPase N138A = H^+,K^+-ATPase N138A (Sus scrofa, UniProt P19156, N139A); assay: ATPase assay, N138A mutant
H^+,K^+-ATPase N138F = H^+,K^+-ATPase N138F (Sus scrofa, UniProt P19156, N139F); assay: ATPase assay, N138F mutant
H^+,K^+-ATPase D137A = H^+,K^+-ATPase D137A (Sus scrofa, UniProt P19156, D138A); assay: ATPase assay, D137A mutant
H^+,K^+-ATPase Y140F = H^+,K^+-ATPase Y140F (Sus scrofa, UniProt P19156, Y141F); assay: ATPase assay, Y140F mutant
H^+,K^+-ATPase Y140L = H^+,K^+-ATPase Y140L (Sus scrofa, UniProt P19156, Y141L); assay: ATPase assay, Y140L mutant
H^+,K^+-ATPase D136A = H^+,K^+-ATPase D136A (Sus scrofa, UniProt P19156, D137A); assay: ATPase assay, D136A mutant
H^+,K^+-ATPase D136L = H^+,K^+-ATPase D136L (Sus scrofa, UniProt P19156, D137L); assay: ATPase assay, D136L mutant
H^+,K^+-ATPase N138I = H^+,K^+-ATPase N138I (Sus scrofa, UniProt P19156, N139I); assay: ATPase assay, N138I mutant
H^+,K^+-ATPase L139F = H^+,K^+-ATPase L139F (Sus scrofa, UniProt P19156, L140F); assay: ATPase assay, L139F mutant
H^+,K^+-ATPase L141I = H^+,K^+-ATPase L141I (Sus scrofa, UniProt P19156, L142I); assay: ATPase assay, L141I mutant
H^+,K^+-ATPase D137L = H^+,K^+-ATPase D137L (Sus scrofa, UniProt P19156, D138L); assay: ATPase assay, D137L mutant
H^+,K^+-ATPase Y140I = H^+,K^+-ATPase Y140I (Sus scrofa, UniProt P19156, Y141I); assay: ATPase assay, Y140I mutant

Sequence of H^+,K^+-ATPase A335G (P19156 whole entry A336G): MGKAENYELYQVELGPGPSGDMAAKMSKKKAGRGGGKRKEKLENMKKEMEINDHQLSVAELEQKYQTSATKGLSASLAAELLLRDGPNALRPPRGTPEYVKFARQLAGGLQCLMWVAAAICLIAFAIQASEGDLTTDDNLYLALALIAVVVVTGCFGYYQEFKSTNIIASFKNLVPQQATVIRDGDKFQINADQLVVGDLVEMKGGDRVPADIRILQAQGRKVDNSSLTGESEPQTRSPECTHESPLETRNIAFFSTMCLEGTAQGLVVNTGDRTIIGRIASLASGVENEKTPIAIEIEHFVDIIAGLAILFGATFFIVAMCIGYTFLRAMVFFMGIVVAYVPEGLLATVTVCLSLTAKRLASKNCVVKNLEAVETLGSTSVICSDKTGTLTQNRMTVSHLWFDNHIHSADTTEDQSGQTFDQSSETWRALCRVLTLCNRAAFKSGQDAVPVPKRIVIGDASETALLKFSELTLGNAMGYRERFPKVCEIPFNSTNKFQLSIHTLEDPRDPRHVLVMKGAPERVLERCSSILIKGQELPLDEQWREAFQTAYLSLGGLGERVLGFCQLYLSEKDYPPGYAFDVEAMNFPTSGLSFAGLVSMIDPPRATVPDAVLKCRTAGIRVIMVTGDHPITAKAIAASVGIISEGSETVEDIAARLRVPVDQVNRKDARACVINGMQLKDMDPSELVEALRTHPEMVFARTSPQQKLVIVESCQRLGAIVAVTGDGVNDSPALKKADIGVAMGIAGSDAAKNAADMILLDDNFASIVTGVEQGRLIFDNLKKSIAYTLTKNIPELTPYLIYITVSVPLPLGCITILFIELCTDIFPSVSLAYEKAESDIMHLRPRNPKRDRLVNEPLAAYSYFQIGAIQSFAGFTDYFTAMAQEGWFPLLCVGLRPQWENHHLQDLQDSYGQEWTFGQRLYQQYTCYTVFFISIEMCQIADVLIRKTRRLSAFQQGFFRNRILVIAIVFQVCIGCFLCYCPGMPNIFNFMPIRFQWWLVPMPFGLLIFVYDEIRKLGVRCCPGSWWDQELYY
Sequence of H^+,K^+-ATPase A335G (P18434 whole entry partner): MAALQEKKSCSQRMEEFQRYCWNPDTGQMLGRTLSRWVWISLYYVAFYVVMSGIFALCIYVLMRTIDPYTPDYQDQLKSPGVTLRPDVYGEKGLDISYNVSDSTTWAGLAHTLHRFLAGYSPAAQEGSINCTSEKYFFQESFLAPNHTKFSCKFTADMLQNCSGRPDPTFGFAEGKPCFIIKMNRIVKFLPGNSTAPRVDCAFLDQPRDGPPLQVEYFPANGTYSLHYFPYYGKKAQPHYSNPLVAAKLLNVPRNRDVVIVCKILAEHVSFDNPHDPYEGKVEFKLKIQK
T1 sequence (P19156 whole entry): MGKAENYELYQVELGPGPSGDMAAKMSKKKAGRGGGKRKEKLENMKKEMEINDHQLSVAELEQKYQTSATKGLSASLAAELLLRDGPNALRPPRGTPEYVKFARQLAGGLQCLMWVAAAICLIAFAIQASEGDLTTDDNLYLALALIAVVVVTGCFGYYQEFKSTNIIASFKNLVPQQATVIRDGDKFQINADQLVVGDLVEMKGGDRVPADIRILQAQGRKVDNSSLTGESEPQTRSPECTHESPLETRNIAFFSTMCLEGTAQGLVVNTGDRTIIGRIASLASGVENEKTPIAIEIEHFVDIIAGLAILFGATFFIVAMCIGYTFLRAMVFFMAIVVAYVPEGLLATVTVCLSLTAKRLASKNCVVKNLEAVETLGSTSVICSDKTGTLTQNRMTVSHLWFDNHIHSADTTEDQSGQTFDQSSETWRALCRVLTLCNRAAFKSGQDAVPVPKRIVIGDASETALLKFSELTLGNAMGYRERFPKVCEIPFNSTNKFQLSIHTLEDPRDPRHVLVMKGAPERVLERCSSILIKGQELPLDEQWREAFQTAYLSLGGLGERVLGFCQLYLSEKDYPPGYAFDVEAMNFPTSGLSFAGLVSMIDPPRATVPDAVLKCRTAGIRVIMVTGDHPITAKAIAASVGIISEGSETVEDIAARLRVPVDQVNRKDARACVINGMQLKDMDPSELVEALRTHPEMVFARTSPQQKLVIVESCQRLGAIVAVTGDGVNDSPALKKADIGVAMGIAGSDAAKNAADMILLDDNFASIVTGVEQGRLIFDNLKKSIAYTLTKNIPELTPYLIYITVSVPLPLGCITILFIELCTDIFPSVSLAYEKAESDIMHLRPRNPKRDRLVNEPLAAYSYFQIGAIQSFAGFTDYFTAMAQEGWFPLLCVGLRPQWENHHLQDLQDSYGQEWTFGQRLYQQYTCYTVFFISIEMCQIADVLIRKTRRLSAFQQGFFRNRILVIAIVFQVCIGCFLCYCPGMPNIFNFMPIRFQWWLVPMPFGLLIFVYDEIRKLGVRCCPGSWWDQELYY
T1 sequence (P18434 whole entry partner): as the sequence (P18434 whole entry partner) above
Sequence of H^+,K^+-ATPase L139I (P19156 whole entry L140I): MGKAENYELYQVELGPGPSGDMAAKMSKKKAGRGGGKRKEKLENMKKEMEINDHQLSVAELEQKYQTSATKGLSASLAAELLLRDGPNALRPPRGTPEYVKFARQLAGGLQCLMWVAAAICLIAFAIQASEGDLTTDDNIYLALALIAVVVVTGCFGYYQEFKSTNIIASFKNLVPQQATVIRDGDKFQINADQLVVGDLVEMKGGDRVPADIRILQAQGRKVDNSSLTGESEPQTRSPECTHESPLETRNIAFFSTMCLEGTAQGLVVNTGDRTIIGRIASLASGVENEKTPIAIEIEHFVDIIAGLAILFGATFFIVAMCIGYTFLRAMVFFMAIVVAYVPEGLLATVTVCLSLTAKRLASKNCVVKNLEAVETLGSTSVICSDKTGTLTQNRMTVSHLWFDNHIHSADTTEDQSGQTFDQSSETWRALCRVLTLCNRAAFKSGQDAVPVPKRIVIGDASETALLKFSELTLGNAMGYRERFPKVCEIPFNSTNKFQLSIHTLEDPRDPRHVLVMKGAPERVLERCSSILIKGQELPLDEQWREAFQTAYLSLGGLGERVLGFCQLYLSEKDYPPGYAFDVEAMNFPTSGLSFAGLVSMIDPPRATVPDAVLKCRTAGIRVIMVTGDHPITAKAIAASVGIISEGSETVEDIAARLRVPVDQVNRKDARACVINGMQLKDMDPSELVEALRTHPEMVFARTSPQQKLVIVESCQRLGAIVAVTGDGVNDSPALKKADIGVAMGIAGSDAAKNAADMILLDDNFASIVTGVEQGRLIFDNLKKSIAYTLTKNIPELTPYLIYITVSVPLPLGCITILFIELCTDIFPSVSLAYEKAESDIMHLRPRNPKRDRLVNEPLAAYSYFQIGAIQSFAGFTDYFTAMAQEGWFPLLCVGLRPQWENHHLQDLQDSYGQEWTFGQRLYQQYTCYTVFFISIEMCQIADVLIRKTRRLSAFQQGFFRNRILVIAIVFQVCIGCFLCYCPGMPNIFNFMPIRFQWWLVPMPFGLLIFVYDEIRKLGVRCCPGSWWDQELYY
Sequence of H^+,K^+-ATPase L139I (P18434 whole entry partner): as the sequence (P18434 whole entry partner) above
Sequence of H^+,K^+-ATPase Y799F (P19156 whole entry Y800F): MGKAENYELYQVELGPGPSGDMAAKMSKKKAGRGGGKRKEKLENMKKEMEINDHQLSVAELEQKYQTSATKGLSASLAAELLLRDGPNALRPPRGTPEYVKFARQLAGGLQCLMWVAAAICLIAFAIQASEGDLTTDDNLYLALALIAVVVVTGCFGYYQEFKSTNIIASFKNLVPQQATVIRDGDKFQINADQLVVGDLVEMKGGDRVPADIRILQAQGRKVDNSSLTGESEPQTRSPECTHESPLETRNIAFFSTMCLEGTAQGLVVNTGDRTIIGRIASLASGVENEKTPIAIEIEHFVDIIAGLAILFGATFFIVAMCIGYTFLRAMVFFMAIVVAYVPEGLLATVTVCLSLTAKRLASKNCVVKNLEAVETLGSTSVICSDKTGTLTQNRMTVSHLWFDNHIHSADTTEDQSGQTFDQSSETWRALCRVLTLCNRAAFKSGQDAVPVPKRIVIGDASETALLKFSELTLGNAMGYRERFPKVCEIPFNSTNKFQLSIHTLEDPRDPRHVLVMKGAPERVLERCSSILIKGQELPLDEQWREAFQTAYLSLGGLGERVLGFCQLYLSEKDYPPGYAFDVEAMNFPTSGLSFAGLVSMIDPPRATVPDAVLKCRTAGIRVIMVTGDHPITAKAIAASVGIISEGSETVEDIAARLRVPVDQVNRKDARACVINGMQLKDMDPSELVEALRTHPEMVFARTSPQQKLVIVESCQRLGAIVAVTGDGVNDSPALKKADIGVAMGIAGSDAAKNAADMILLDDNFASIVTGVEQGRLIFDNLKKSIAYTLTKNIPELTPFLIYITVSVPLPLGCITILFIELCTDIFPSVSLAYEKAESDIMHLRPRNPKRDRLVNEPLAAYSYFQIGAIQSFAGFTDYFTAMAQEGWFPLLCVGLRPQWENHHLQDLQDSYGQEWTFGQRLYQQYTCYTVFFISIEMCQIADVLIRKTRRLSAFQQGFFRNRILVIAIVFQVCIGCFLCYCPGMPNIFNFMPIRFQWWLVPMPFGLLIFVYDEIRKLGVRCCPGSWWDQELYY
Sequence of H^+,K^+-ATPase Y799F (P18434 whole entry partner): as the sequence (P18434 whole entry partner) above

## Cc1nc2c3c(ccn2c1C)[C@@H](O)[C@H](O)[C@@H](c1ccccc1)N3C [BYK73]
H^+,K^+-ATPase D137I
  Ki: 32 ± 5 µM
H^+,K^+-ATPase D137I; D137I
  -fold increase in K i compared with wild-type: 6.5 fold
H^+,K^+-ATPase WT; WT
  -fold increase in K i compared with wild-type: 1.0 fold
H^+,K^+-ATPase WT; WT enzyme
  fold lower affinity compared with BYK99: 1000 fold
H^+,K^+-ATPase WT; WT, global fitting, mean ± SEM
  Ki: 4.9 ± 0.4 µM
H^+,K^+-ATPase L139A
  Ki: 5.8 ± 0.6 µM
H^+,K^+-ATPase L139A; L139A
  -fold increase in K i compared with wild-type: 1.2 fold
H^+,K^+-ATPase Y799F
  Ki: 21 ± 2.7 µM
H^+,K^+-ATPase Y799F; Y799F
  -fold increase in K i compared with wild-type: 4.3 fold
H^+,K^+-ATPase D136F
  Ki: 4 ± 0.2 µM
H^+,K^+-ATPase D136F; D136F
  -fold increase in K i compared with wild-type: 0.8 fold
H^+,K^+-ATPase
  IC50: 29 µM
H^+,K^+-ATPase D136I
  Ki: 6.7 ± 0.4 µM
H^+,K^+-ATPase D136I; D136I
  -fold increase in K i compared with wild-type: 1.4 fold
H^+,K^+-ATPase L139I
  Ki: 1.7 ± 0.2 µM
H^+,K^+-ATPase L139I; L139I
  -fold increase in K i compared with wild-type: 0.3 fold
H^+,K^+-ATPase D137F
  Ki: 110 ± 10 µM
H^+,K^+-ATPase D137F; D137F
  -fold increase in K i compared with wild-type: 22 fold
H^+,K^+-ATPase N138L
  Ki: > 100 µM
H^+,K^+-ATPase N138L; N138L
  -fold increase in K i compared with wild-type: > 20 fold
H^+,K^+-ATPase A335G
  Ki: 0.078 ± 0.006 µM
H^+,K^+-ATPase A335G; A335G
  -fold increase in K i compared with wild-type: 0.016 fold
H^+,K^+-ATPase A335G; A335G vs WT
  fold increased affinity: more than 60 fold
H^+,K^+-ATPase Y799A
  Ki: > 200 µM
H^+,K^+-ATPase Y799A; Y799A
  -fold increase in K i compared with wild-type: > 40 fold
H^+,K^+-ATPase Y140A
  Ki: 14 ± 2 µM
H^+,K^+-ATPase Y140A; Y140A
  -fold increase in K i compared with wild-type: 2.9 fold
H^+,K^+-ATPase N138A
  Ki: 6.6 ± 0.8 µM
H^+,K^+-ATPase N138A; N138A
  -fold increase in K i compared with wild-type: 1.3 fold
H^+,K^+-ATPase N138F
  Ki: > 100 µM
H^+,K^+-ATPase N138F; N138F
  -fold increase in K i compared with wild-type: > 20 fold
H^+,K^+-ATPase D137A
  Ki: 120 ± 30 µM
H^+,K^+-ATPase D137A; D137A
  -fold increase in K i compared with wild-type: 25 fold
H^+,K^+-ATPase Y140F
  Ki: 7.6 ± 0.5 µM
H^+,K^+-ATPase Y140F; Y140F
  -fold increase in K i compared with wild-type: 1.6 fold
H^+,K^+-ATPase Y140L
  Ki: 6.5 ± 0.6 µM
H^+,K^+-ATPase Y140L; Y140L
  -fold increase in K i compared with wild-type: 1.3 fold
H^+,K^+-ATPase D136A
  Ki: 9 ± 0.5 µM
H^+,K^+-ATPase D136A; D136A
  -fold increase in K i compared with wild-type: 1.8 fold
H^+,K^+-ATPase D136L
  Ki: 3.2 ± 0.2 µM
H^+,K^+-ATPase D136L; D136L
  -fold increase in K i compared with wild-type: 0.7 fold
H^+,K^+-ATPase N138I
  Ki: 62 ± 17 µM
H^+,K^+-ATPase N138I; N138I
  -fold increase in K i compared with wild-type: 13 fold
H^+,K^+-ATPase L139F
  Ki: 8.9 ± 0.7 µM
H^+,K^+-ATPase L139F; L139F
  -fold increase in K i compared with wild-type: 1.8 fold
H^+,K^+-ATPase L141I
  Ki: 3.9 ± 0.8 µM
H^+,K^+-ATPase L141I; L141I
  -fold increase in K i compared with wild-type: 0.8 fold
H^+,K^+-ATPase D137L
  Ki: > 100 µM
H^+,K^+-ATPase D137L; D137L
  -fold increase in K i compared with wild-type: > 20 fold
H^+,K^+-ATPase Y140I
  Ki: 4 ± 0.5 µM
H^+,K^+-ATPase Y140I; Y140I
  -fold increase in K i compared with wild-type: 0.8 fold

From publication PMC5529566, “The cryo-EM structure of gastric H^+,K^+-ATPase with bound BYK99, a high-affinity member of K^+-competitive, imidazo[1,2-a]pyridine inhibitors” (Scientific Reports, 2017)
